Test results taken from patent US20050215548A1 (Cyclacel Limited, priority 2002, published 2005).
Where two headings read alike, the source gives them in different places. Each block holds one compound with its values, some of them ahead of it.

How the values were obtained:
AGS [1] = assay: Combination treatment with cisplatin or etoposide, MTT, AGS; format: cell-based, human; details: MTT, 72 hours
Description: (§1) It is well established that radiotherapy and most current forms of chemotherapy cause extensive genetic damage and induction of the p53-dependent apoptotic pathway, which determines the important role of this tumor suppressor protein in cancer therapy. HDM2, on the other hand, as a transcriptional product and negative regulator pf p53, would destabilise p53 and diminish its pro-apoptotic function. Inhibitors of the p53-HDM2 negative feedback loop (e.g. compounds disrupting the p53-HDM2 complex) are expected to synergise with cytotoxic agents for induction of p53 and subsequent apoptosis. […] Both chemotherapeutic agents were used in the concentration range of 100-0.19 μM.

H1299 = assay: Combination treatment with cisplatin or etoposide, MTT, H1299; format: cell-based, human; details: 72 hours
Description: as §1

SJSA-1 = assay: Combination treatment with cisplatin or etoposide, MTT, SJSA-1; format: cell-based, human; details: MTT, 72 hours
Description: as §1

[2] = system: key proteins in the HDM2 pathway; assay: SDS-PAGE and immunoblotting of key proteins in the HDM2 pathway; format: cell-based, human; details: for changes in protein levels and cell morphology: negative control: MCF7, 13.5 μM, 68/69: MCF7 and H1299 at five times IC50 of 69, 49: AGS, SJSA1, H1299
Description: Equal amounts of cell lysate were separated by SDS-PAGE and analysed by immunoblotting using the indicated antibodies. An estimation of the extent of cell rounding is indicated above each lane. […] (B) The effect of compound 2 on the levels of the cell cycle proteins in AGS cells (wild-type 53). […] Equal amounts of cell lysate were separated by SDS-PAGE and analysed by immunoblotting using the indicated antibodies. An estimation of the extent of cell rounding is indicated above each lane. (C) The effect of negative control compound (refer Example 10), compound 2, cisplatin, and anisomycin on the levels of key proteins in MCF7 cells. […] Cisplatinum and anisomycin (a transcription inhibitor) treatments were with 50 μM or 37 μM, respectively. Cells were harvested at various time points; afterwards lysates were prepared and separated by SDS-PAGE and analysed by immunoblotting. The proteins detected are indicated. The extent of rounded or floating cells and the percentage viable cells were assessed. […] Equal amounts of cell lysate were separated by SDS-PAGE and analysed by immunoblotting using a range of antibodies. An estimation of the extent of cell rounding is indicated above each lane. […] SJSA1 cells were treated with 5 times [IC50] of compound 2 and collected at the indicated time points. Equal amounts of cell lysate were separated by SDS-PAGE and analysed by immunoblotting using a range of antibodies. An estimation of the extent of cell rounding is indicated above each lane.
Many types of cellular stress converge on the p53 pathway and induce its activity. […] The biological effect of bisarylsufonamides on cellular level was studies using representative compounds (mainly compound 2) and number of cell lines with different HDM2 and p53 status. These were overexpressing Hdm2 (SJSA1—osteosarcoma), wild type p53 and normal levels of HDM2 (AGS—gastric adenocarcinoma, MCF7—breast adenocarcinoma), or p53 null, low levels of HDM2 (H1299—large cell lung carcinoma).
Cells were lysed and equal amounts were analysed by SDS-polyacrylamide gel electrophoresis (SDS-PAGE) and immunoblotting.

MCF7 or H1299 cells = assay: Cell cycle distribution, propidium iodide flow cytometry; format: cell-based, human; details: 5 times IC50
Procedure: Cells were stained with propidium iodide and the cell cycle position was determined using a flow cytometer.

HDM2 [3] = biological target: T1, HDM2 (Homo sapiens, UniProt Q00987); assay: Fluorescence polarisation competitive HDM2 binding assay
T1 construct: Recombinant HDM2 (1.5 μg per well) in TBS-BSA buffer
T1 sequence (Q00987 whole entry): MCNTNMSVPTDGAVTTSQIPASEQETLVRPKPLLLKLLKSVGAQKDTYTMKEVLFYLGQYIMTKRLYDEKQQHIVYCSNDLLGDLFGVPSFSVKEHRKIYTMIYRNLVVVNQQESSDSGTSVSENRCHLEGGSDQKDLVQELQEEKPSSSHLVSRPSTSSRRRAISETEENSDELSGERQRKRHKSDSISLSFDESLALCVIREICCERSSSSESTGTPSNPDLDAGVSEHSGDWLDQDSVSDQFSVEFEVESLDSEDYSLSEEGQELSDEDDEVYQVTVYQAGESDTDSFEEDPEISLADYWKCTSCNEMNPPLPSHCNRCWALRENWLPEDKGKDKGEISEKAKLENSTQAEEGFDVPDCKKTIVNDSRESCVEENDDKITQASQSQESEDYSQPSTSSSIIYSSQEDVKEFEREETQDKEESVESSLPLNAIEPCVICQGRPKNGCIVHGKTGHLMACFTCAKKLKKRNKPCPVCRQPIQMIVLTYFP
Summary of the method: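 Recombinant HDM2 (1.5 μg/well) was preincubated 5 min at room temperature with serially diluted compound in 50 mM Tris pH 7.4, 150 mM NaCl, 0.1% BSA, 5% DMSO final. Fluorescein-labelled p53 peptide (0.2 μM) was then added for 45 min. Polarisation was read at 485/520 nm and IC50 derived from dose-response curves.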

AGS [4] = assay: 72-h MTT cytotoxicity assay, AGS; format: cell-based; details: Homo sapiens, 72-h MTT, Table 1, read-out: IC50 Anti-proliferative effect on cell line AGS
Summary of the method: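 Bisarylsulfonamides are applied to human cancer cells and growth inhibition is read by MTT. H1299 lung carcinoma lacks p53 and expresses little HDM2, SJSA-1 osteosarcoma-type cells are p53 wild-type with high HDM2, and AGS gastric cells retain wild-type p53.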

HDM2 [5] = biological target: T1, HDM2; details: literature, cited from earlier work; for affinity for HDM2 / inhibition of the p53/HDM2 complex: background
carcinoma cell lines = assay: 72-h MTT panel, average carcinomas; format: cell-based; details: Homo sapiens, read-out: Anti-proliferative activity, 72-h MTT IC50, Average carcinomas
Procedure: Representative bisarylsulfonamide compounds were tested on a panel of transformed and non-transformed human cell lines, using a standard 72-h MTT cytotoxicity assay [Haselsberger K et al, ibid].
This differential selectivity further supports the notion that the bisarylsulfonamides modulate cellular HDM2 function. It is known that HDM2 amplification is particularly common in soft tissue sarcomas and osteosarcomas [Momand J et al, ibid; Bartel F, Meye A, Wurl P, Kappler M, Bache M, Lautenschlager C, Grunbaum U, Schmidt H, Taubert H; Int. J. Cancer 2001; 95: 168-175].

[6] = Table 5, read-out: IC50, agent alone
[7] = Homo sapiens, Table 6, read-out: IC50, agent alone

Compound: N.N.[Cl][Pt][Cl] [Cisplatin, reference compound]
IC50 (AGS [1]; [6]): 3.8 µM
IC50 (H1299; MTT, Table 5, read-out: IC50, agent alone): 2.9 µM
IC50 (SJSA-1; [6]): 6.1 µM
p53 level and p53 phosphorylation at serine 15 ([2]; compound 2: AGS, H1299, MCF7 or SJSA1 cells, etoposide or cisplatinum: AGS or MCF7 cells): inducing p53 phosphorylation of serine 15, as well as increasing the p53 and E2F-1 protein levels
cell cycle arrest (MCF7 or H1299 cells): no detectable arrest at any phase of the cell cycle
sub-G1 cells, indicative of apoptosis (MCF7 or H1299 cells): induced sub-G1 cells

IC50 (HDM2 [3]; text of Example 10, refer Table 1, read-out: competitive inhibition IC50): 431 µM
Compound: O=[N+]([O-])c1ccc(S(=O)(=O)Nc2ccc(Cl)cc2)s1 [Compound 68, 5-Nitro-thiophene-2-sulfonic acid (4-chloro-phenyl)-amide]
IC50 (AGS [4]): 76 µM
changes in protein levels and cell morphology [2]: Little change in protein levels

Compound: O=C(O)COc1ccc(C(=O)C=Cc2ccc(Cl)c(Cl)c2)cc1 [Compound B-1, {4-[3-(3,4-dichloro-phenyl)-acryloyl]-phenoxy}-acetic acid]
affinity for HDM2 / inhibition of the p53/HDM2 complex (HDM2 [5]): high micromolar affinity

IC50 (AGS [1]; [7]): 0.28 µM
IC50 (H1299; Homo sapiens, NCI-H1299, MTT, Table 6, read-out: IC50, agent alone): 1.3 µM
IC50 (SJSA-1; [7]): 16 µM
Compound: COc1cc([C@@H]2c3cc4c(cc3[C@@H](O[C@@H]3O[C@@H]5CO[C@@H](C)O[C@H]5[C@H](O)[C@H]3O)[C@H]3COC(=O)[C@H]23)OCO4)cc(OC)c1O [Etoposide, reference compound]

Compound: CC[C@H](CO)Nc1nc(NCc2ccccc2)c2ncn(C(C)C)c2n1 [Roscovitine, reference compound]
IC50 (carcinoma cell lines): 11.2 ± 3 µM

inhibition of the HDM2-p53 interaction in vitro (HDM2 [3]): does not inhibit
Compound: O=S(=O)(NCc1ccc(C(F)(F)F)cc1)c1cc(Br)c(Cl)s1 [negative control compound, 4-bromo-5-chloro-thiophene-2-sulfonic acid 4-trifluoromethyl-benzylamide, reference compound]
changes in protein levels and cell morphology [2]: did not induce any notable changes in the protein levels tested or cell morphology

Compound: FMDYWEGL
affinity for HDM2 / inhibition of the p53/HDM2 complex (HDM2 [5]): micromolar affinity

Compound: MPRFMDYWEGLN
affinity for HDM2 / inhibition of the p53/HDM2 complex (HDM2 [5]): sub-micromolar affinity
fold more potent than the corresponding wild-type p53-derived peptide (HDM2 [5]; versus 16QETFSDLWKLLF27): 28 fold

Compound: TFSDLW (UniProt P04637 18-23, looked up, fragment) [p53(18-23)]
affinity for HDM2 / inhibition of the p53/HDM2 complex (HDM2 [5]): little affinity

Compound: chlorofusin
affinity for HDM2 / inhibition of the p53/HDM2 complex (HDM2 [5]): micromolar inhibitor
